Experimental findings from paper PMC6199309, “A therapeutic approach to pantothenate kinase associated neurodegeneration” (Nature Communications, 2018) are described below.

One experiment addresses T1, NIK (Homo sapiens, UniProt Q99558).
T1 construct: purchased DiscoverX KINOMEscan
The experiment is described as follows: KINOMEscan. The format is binding. Particulars: read-out: %Ctrl @ 10000nM.

The target of a further experiment is T2, PIK3CA(H1047L) (Homo sapiens, UniProt P42336, H1047L).
T2 construct: purchased DiscoverX KINOMEscan
T2 sequence (P42336 whole entry H1047L): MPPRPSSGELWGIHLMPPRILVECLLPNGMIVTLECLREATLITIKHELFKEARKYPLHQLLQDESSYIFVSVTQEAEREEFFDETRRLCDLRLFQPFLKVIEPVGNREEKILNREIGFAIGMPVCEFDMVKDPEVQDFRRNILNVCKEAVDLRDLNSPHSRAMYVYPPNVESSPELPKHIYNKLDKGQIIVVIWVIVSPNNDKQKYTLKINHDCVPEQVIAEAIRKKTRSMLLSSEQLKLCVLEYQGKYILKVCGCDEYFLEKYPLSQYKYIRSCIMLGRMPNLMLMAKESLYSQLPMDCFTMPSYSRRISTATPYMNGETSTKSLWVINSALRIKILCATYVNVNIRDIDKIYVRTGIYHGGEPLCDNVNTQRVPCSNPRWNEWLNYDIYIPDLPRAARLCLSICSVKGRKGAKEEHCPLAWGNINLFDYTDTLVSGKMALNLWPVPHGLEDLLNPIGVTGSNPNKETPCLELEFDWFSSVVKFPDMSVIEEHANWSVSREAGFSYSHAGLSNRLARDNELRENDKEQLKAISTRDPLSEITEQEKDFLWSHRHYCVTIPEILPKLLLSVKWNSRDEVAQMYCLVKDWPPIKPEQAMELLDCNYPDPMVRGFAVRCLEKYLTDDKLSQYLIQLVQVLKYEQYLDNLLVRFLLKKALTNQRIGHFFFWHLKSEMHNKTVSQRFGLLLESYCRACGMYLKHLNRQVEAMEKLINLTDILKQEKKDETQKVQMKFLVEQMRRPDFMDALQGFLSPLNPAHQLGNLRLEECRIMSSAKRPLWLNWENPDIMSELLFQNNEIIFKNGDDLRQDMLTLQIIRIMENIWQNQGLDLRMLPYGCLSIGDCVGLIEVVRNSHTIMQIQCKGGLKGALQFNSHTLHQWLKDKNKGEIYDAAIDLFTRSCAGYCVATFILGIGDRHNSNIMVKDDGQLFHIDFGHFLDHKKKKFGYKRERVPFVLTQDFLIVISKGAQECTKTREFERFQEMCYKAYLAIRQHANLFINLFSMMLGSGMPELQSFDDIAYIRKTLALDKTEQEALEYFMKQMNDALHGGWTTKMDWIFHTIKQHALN
The experiment is described as follows: KINOMEscan. The format is binding. The note with it: read-out: %Ctrl @ 10000nM.

The target in another experiment is T3, GSK3B (Homo sapiens, UniProt P49841).
T3 construct: purchased DiscoverX KINOMEscan
T3 sequence (P49841 whole entry): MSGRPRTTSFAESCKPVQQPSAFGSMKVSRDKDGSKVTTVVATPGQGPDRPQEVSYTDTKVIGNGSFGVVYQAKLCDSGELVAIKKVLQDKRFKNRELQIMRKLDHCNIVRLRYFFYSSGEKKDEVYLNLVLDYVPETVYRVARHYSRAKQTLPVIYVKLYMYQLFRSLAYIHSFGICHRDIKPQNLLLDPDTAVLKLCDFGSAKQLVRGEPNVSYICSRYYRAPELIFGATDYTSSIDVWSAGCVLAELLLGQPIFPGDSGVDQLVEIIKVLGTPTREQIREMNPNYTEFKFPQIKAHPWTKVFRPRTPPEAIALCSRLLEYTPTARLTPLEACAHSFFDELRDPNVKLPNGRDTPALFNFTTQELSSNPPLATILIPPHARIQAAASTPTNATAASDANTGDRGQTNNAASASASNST
The experiment is described as follows: KINOMEscan. Particulars: read-out: %Ctrl @ 10000nM. The format is binding.

The target in another experiment is T4, ABL1-phosphorylated (Homo sapiens, UniProt P00519).
T4 construct: purchased DiscoverX KINOMEscan
The experiment is described as follows: KINOMEscan. The format is binding. Particulars: read-out: %Ctrl @ 10000nM.

The target in another experiment is T5, PAK1 (Homo sapiens, UniProt Q13153).
T5 construct: purchased DiscoverX KINOMEscan
T5 sequence (Q13153 whole entry): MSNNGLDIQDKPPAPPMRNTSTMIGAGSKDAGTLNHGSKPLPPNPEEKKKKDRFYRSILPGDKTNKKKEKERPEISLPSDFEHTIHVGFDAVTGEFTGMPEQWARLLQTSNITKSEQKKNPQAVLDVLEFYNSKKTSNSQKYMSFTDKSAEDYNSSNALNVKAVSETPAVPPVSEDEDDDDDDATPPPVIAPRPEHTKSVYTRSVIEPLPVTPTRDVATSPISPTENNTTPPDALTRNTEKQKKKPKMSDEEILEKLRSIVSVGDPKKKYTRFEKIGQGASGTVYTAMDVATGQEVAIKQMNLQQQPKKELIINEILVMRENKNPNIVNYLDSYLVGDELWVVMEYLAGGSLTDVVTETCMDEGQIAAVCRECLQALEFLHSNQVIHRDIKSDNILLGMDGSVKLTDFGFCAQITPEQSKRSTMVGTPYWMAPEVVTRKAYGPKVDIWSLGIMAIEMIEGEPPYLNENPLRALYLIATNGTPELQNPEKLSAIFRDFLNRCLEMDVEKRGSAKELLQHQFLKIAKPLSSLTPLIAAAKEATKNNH
The experiment is described as follows: KINOMEscan. The format is binding. Particulars: read-out: %Ctrl @ 10000nM.

The next experiment has as its system C3A cells. The experiment is described as follows: Intracellular CoA and metabolite levels in C3A cells. In kind it is cell-based, human. Particulars: 24 h. The procedure:
HEK293T cells (ATCC, #CRL-3216) were maintained in Dulbecco’s modified Eagle’s medium (DMEM, Biowhittaker/Lonza) supplemented with 10% FCS. Human C3A [HepG2/C3A, derivative of HepG2] cells (ATCC #CRL-10741) were purchased from ATCC® and maintained in Eagle’s minimum Essential medium (ATCC) supplemented with 2 mM glutamine, 10% fetal bovine serum (FCS, Altanta Biologicals), 50 U/ml penicillin and […] streptomycin. Both cell lines were confirmed to be mycoplasma-free. […]. […] After 24 h of treatment (total 48 h after transfection) the cells were washed with PBS and harvested and subjected to either total CoA or acetyl-CoA determinations.
Prior to labeling, cells were seeded at a density of 2–3 × 10^6 in 60 mm-dishes in reconstituted DMEM without added pantothenate and allowed to adhere overnight. The labeling was initiated by replacing the medium with 2 ml of labeling medium containing 0.1% dimethylsulfoxide (DMSO; control) or 10 μM of the compound in 0.1% DMSO. Cells were incubated for 24 h, the labeling medium was removed, and cells were washed with phosphate buffered saline and lysed by sonication in 20 mM Tris-HCl, pH 7.5, 2 mM DTT, 5 mM EDTA and 50 mM NaF. The lysates were fractionated by thin-layer chromatography after removal of the cell debris by centrifugation. The samples were spotted on Silica Gel H plates and resolved with 95% ethanol:28% ammonium hydroxide (4/1, v/v). The distribution of radioactivity on the plate was quantified using a Bioscan Imager (Bioscan, Inc.) together with quantification of the total cellular radioactivity determined by a Liquid Scintillation Analyzer (PerkinElmer Tri-Carb 2910 TR). Triplicate culture dishes were labeled for each group plus a dish for each group for determination of cell counts and viability using a Nucleocounter (New Brunswick Scientific) according to the manufacturer’s directions. The experiments were repeated twice in duplicate and the data represented is an overall average ± SEM.
Cultured cells or frozen tissues were resuspended in 2 ml cold water to which 500 μl of 0.25 M KOH was added, derivatized with monobromobimane (mBBr, Life technologies) and quantified by HPLC[23]. For acetyl-CoA determinations, C3A cells were resuspended in 1 ml water, added to 2 ml of methanol and 1 ml chloroform, and incubated on ice for 15 min. Chloroform 1.5 ml, 1.2 ml water and 30 pmol of [^13C2]acetyl-CoA (Sigma) was added, and centrifuged at 2000×g for 10 min. The top layer was loaded on a 2-(2-pyridyl) ethyl solid phase extraction column which was equilibrated with 1 ml 50% methanol/2% acetic acid. The column was washed twice with 1 ml 50% methanol/2% acetic acid and 1 ml water. CoA and thioesters were eluted twice with 1 ml 95% ethanol containing 50 mM ammonium hydroxide. Samples were resuspended in 90% methanol containing 15 mM ammonium hydroxide.
The mBBr derivatized sample was fractionated by reverse-phase HPLC using a Gemini C18 3 μm column (150 × 4.60 mm) from Phenomenex. The chromatography system was a Waters e2695 separation module with a UV/Vis and fluorescence detector and controlled by Empower 3 software. Solvent A was 50 mM potassium phosphate pH 4.6, and solvent B was 100% acetonitrile. Twenty microliters of sample was injected onto the column, and the flow rate was 0.5 ml/min. The HPLC program was the following: starting solvent mixture of 90% A/10% B, 0–2 min isocratic with 10% B, 2–6 min linear gradient from 10% B to 15% B, 6–18 min concave gradient from 15% B to 40% B, 18–23 min isocratic with 40% B, 23–25 min linear gradient from 40 to 10%, and 25–30 min isocratic with 10% B. The UV/vis detector was set at 393 nm, and the fluorescence detector was set with excitation at 393 nm and emission at 470 nm. […]

The target in the next experiment is T6, MARK3 (Homo sapiens, UniProt P27448).
T6 construct: purchased DiscoverX KINOMEscan
T6 sequence (P27448 whole entry): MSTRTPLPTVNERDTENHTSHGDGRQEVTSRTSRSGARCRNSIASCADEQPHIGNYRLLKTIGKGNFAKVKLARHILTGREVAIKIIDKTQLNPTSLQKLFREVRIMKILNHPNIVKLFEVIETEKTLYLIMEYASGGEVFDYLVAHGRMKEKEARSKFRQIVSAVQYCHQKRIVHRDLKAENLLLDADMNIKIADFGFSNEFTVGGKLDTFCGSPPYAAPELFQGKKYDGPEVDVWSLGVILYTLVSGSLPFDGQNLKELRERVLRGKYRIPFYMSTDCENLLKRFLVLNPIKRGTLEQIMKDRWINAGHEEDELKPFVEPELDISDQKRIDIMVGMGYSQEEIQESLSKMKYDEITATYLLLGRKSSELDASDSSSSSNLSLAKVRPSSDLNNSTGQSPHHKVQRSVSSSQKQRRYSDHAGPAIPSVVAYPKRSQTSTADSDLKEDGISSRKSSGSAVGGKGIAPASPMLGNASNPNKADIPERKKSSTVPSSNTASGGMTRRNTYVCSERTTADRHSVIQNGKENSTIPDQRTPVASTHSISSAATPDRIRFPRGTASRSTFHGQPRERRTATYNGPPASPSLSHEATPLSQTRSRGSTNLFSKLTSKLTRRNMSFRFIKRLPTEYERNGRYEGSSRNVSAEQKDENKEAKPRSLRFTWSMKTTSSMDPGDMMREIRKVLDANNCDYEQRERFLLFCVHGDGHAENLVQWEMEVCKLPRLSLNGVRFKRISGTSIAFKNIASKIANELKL
The experiment can be described thus: KINOMEscan. In kind it is binding. Particulars: read-out: %Ctrl @ 10000nM.

Another experiment concerns the target T7, MEK6 (Homo sapiens, UniProt P52564).
T7 construct: purchased DiscoverX KINOMEscan
The experiment is described as follows: KINOMEscan. In kind it is binding. The note with it: read-out: %Ctrl @ 10000nM.

The target in a further experiment is T8, CSNK1A1L (Homo sapiens, UniProt Q8N752).
T8 construct: purchased DiscoverX KINOMEscan
T8 sequence (Q8N752 whole entry): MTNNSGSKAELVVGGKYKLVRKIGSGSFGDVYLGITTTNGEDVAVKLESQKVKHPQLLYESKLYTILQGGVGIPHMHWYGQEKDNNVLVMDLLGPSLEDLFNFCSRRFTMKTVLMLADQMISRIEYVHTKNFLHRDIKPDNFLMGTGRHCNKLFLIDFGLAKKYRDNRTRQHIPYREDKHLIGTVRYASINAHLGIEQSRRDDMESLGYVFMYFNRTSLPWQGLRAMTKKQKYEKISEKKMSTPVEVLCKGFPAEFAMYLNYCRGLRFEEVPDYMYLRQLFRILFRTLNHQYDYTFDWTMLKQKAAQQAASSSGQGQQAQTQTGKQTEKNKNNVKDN
The experiment is described as follows: KINOMEscan. The format is binding. The note with it: read-out: %Ctrl @ 10000nM.

A further experiment addresses T9, ADCK3 (Homo sapiens, UniProt Q8NI60).
T9 construct: purchased DiscoverX KINOMEscan
The experiment is described as follows: KINOMEscan. The format is binding. Particulars: read-out: %Ctrl @ 10000nM.

The target in another experiment is T10, SRMS (Homo sapiens, UniProt Q9H3Y6).
T10 construct: purchased DiscoverX KINOMEscan
T10 sequence (Q9H3Y6 whole entry): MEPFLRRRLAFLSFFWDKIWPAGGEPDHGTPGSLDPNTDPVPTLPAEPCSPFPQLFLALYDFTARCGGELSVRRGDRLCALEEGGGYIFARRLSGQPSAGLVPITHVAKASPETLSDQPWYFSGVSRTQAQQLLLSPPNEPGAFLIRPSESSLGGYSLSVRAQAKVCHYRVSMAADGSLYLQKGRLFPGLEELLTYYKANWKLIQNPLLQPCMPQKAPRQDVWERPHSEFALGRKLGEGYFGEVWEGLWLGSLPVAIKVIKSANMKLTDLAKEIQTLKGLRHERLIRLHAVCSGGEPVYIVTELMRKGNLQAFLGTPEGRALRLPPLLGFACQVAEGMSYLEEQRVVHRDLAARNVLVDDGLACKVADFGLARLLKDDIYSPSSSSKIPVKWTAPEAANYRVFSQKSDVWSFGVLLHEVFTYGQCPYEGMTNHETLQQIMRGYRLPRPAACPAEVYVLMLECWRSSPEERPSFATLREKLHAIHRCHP
The experiment is described as follows: KINOMEscan. The format is binding. Particulars: read-out: %Ctrl @ 10000nM.

T9 sequence (Q8NI60 163-647): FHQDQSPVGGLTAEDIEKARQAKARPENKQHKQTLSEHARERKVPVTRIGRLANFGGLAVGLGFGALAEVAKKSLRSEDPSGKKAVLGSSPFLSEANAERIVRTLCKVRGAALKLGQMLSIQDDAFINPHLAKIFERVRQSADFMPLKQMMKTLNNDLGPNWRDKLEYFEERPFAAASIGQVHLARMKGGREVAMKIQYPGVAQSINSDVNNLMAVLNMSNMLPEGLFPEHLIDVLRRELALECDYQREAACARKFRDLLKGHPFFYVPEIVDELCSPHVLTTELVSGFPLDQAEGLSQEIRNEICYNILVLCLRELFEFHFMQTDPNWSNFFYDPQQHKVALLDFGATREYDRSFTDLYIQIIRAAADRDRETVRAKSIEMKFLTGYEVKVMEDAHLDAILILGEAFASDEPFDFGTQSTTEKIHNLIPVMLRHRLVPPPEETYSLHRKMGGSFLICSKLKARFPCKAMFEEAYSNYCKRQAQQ
T7 sequence (P52564 whole entry): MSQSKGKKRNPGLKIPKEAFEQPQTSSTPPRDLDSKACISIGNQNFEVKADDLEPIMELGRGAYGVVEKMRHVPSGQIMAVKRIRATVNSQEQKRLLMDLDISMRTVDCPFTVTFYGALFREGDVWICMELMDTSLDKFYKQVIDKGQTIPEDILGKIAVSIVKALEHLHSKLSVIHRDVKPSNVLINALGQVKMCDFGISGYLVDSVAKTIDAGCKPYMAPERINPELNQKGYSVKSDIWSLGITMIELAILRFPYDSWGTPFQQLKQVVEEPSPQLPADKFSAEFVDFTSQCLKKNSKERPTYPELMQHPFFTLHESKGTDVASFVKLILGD

Turning to `CC(C)c1ccc(CC(=O)N2CCN(c3ccc(C#N)nn3)CC2)cc1` [PZ-2891, 6-(4-(2-(4-isopropylphenyl)acetyl)piperazin-1-yl)pyridazine-3-carbonitrile], the remaining binding at 10 µM on NIK is 100%; on PIK3CA(H1047L), 69%; at GSK3B it was 74%; on ABL1-phosphorylated, 78%; at PAK1, 76%; on MARK3, 84%. The remaining binding at 10 µM at MEK6 was determined as 94%; on CSNK1A1L, 100%; at ADCK3, 100%; at SRMS, 72%. In addition, in the experiment on C3A cells (10 μM, C3A cells), the “intracellular CoA ([3H]pantothenate labeling)” value is recorded as “increased the amount of intracellular CoA”. In addition, in the experiment with C3A cells (10 μM, C3A cells), the “intracellular pantothenate ([3H]pantothenate labeling)” value was “lowered intracellular pantothenate”. For the same compound, the “acetyl-CoA levels in C3A cells” value with C3A cells (10 μM, mass spectrometry) is given as “higher acetyl-CoA levels”. For the same compound, in the experiment with C3A cells (increasing concentrations (20 and 50 μM less activating)), the “total intracellular CoA levels in C3A cells” value is on record as “CoA progressively increased up to 10 μM”.
